Results from ChEMBL document CHEMBL1201862, “PubChem BioAssay data set” (2004).
Where “and” joins values, the source holds several entries; their conditions need not be identical. Identical values can stand only once.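 Tested at 5 concentrations; 48 h exposure; 96-well plates; endpoints linearly interpolated, else capped at highest concentration. GI50 is the concentration that inhibits growth by half.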 Calls of active or inactive are those of the source. No stated cut-off is given here; in the data, active = GI50 up to about 1.1 µM and inactive = higher.

What was measured:
Assay in all cases: NCI anticancer screen, dose series, 48 h
786-0 = test system: 786-0
A498 = test system: A498
A549 = test system: A549
ACHN = test system: ACHN
CAKI-1 = test system: CAKI-1
COLO 205 = test system: COLO 205
DU-145 = test system: DU-145
EKVX = test system: EKVX
HCC 2998 = test system: HCC 2998
HCT-116 = test system: HCT-116
HCT-15 = test system: HCT-15
HL-60 = test system: HL-60
HOP-62 = test system: HOP-62
HOP-92 = test system: HOP-92
HT-29 = test system: HT-29
Hs-578T = test system: Hs-578T
IGROV-1 = test system: IGROV-1
K562 = test system: K562
KM12 = test system: KM12
LOX IMVI = test system: LOX IMVI
M14 = test system: M14
MDA-MB-231 = test system: MDA-MB-231
MDA-MB-435 = test system: MDA-MB-435
MDA-N = test system: MDA-N
NCI-H226 = test system: NCI-H226
NCI-H23 = test system: NCI-H23
NCI-H522 = test system: NCI-H522
NCI/ADR-RES = test system: NCI/ADR-RES
OVCAR-3 = test system: OVCAR-3
OVCAR-5 = test system: OVCAR-5
PC-3 = test system: PC-3
RPMI-8226 = test system: RPMI-8226
RXF 393 = test system: RXF 393
SF-268 = test system: SF-268
SF-295 = test system: SF-295
SK-MEL-28 = test system: SK-MEL-28
SK-MEL-2 = test system: SK-MEL-2
SK-MEL-5 = test system: SK-MEL-5
SK-OV-3 = test system: SK-OV-3
SN12C = test system: SN12C
SNB-19 = test system: SNB-19
SNB-75 = test system: SNB-75
SR = test system: SR
SW-620 = test system: SW-620
T47D = test system: T47D
TK-10 = test system: TK-10
U-251 = test system: U-251
UACC-257 = test system: UACC-257
UO-31 = test system: UO-31
CCRF-CEM = test system: CCRF-CEM
MCF7 = test system: MCF7
MOLT-4 = test system: MOLT-4
Malme-3M = test system: Malme-3M
NCI-H460 = test system: NCI-H460
OVCAR-4 = test system: OVCAR-4
OVCAR-8 = test system: OVCAR-8
SF-539 = test system: SF-539
UACC-62 = test system: UACC-62

Measured: GI50

COC(=O)C1OC(O[C@H]2CC[C@]3(C)[C@H]4CC=C5[C@@H]6CC(C)(C)CC[C@]6(C(=O)OC6OCC(O)C(O)C6OC6OC(C)C(OC7OCC(O)C(O)C7O)C(O)C6O)[C@H](O)C[C@@]5(C)[C@]4(C)CC[C@H]3C2(C)C)C(O)C(O)C1O (stereo not given in full)
12.9 µM and 13.7 µM: HCT-15
inactive: 786-0 5.56 µM and 8.55 µM | A498 1.75 µM and 1.86 µM | A549 3.9 µM and 3.47 µM | ACHN 4.35 µM and 4.5 µM | CAKI-1 2.61 µM and 4 µM | COLO 205 1.66 µM and 1.83 µM | DU-145 9.73 µM and 13.4 µM | EKVX 3.27 µM and 2.82 µM | HCC 2998 2.82 µM and 1.82 µM | HCT-116 4.08 µM and 4.86 µM | HL-60 2.63 µM and 2.56 µM | HOP-62 8.85 µM and 6.27 µM | HOP-92 1.88 µM and 2.09 µM | HT-29 2.77 µM and 3.73 µM | Hs-578T 16.4 µM and 16.3 µM | IGROV-1 15.8 µM and 11.7 µM | K562 6.28 µM and 10.8 µM | KM12 3.48 µM and 3.61 µM | LOX IMVI 3.36 µM and 6.43 µM | M14 2.75 µM and 3.91 µM | MDA-MB-231 1.91 µM and 2.36 µM | MDA-MB-435 2.32 µM and 1.95 µM | MDA-N 1.87 µM and 3.43 µM | NCI-H226 7.13 µM and 3.94 µM | NCI-H23 2.14 µM and 2.24 µM | NCI-H522 1.78 µM and 2.63 µM | NCI/ADR-RES 4.08 µM and 3.24 µM | OVCAR-3 11.8 µM and 14.8 µM | OVCAR-5 4.93 µM and 6.59 µM | PC-3 4.45 µM and 4.68 µM | RPMI-8226 4.51 µM and 5.06 µM | RXF 393 11.3 µM and 14.9 µM | SF-268 9.29 µM and 9.2 µM | SF-295 3.95 µM and 3.91 µM | SK-MEL-28 1.87 µM and 2.13 µM | SK-MEL-2 2.7 µM and 2.9 µM | SK-MEL-5 6.61 µM and 13.1 µM | SK-OV-3 11.4 µM and 13.4 µM | SN12C 1.84 µM and 1.85 µM | SNB-19 4.56 µM and 7.24 µM | SNB-75 4.81 µM and 8.53 µM | SR 3.14 µM and 3.86 µM | SW-620 13.2 µM and 11.7 µM | T47D 8.28 µM and 5.32 µM | TK-10 8.15 µM and 9.68 µM | U-251 5.55 µM and 6.11 µM | UACC-257 2.9 µM and 5.79 µM | UO-31 1.71 µM and 2.04 µM

Cc1n[nH]/c(=N\S(=O)(=O)c2ccc(/N=N/c3c(O)c(C(=O)O)cc4ccccc34)cc2)s1
inactive: 786-0 > 100 µM | A549 > 100 µM | ACHN > 100 µM | CAKI-1 > 100 µM | CCRF-CEM > 100 µM | COLO 205 > 100 µM | DU-145 > 100 µM | EKVX > 100 µM | HCC 2998 > 100 µM | HCT-116 > 100 µM | HL-60 > 100 µM | HOP-62 > 100 µM | HOP-92 > 100 µM | HT-29 > 100 µM | Hs-578T > 100 µM | IGROV-1 > 100 µM | K562 > 100 µM | KM12 > 100 µM | M14 > 100 µM | MCF7 > 100 µM | MDA-MB-231 > 100 µM | MDA-MB-435 > 100 µM | MDA-N > 100 µM | MOLT-4 > 100 µM | Malme-3M > 100 µM | NCI-H226 > 100 µM | NCI-H23 > 100 µM | NCI-H460 > 100 µM | NCI-H522 > 100 µM | NCI/ADR-RES > 100 µM | OVCAR-3 > 100 µM | OVCAR-4 > 100 µM | OVCAR-5 > 100 µM | OVCAR-8 > 100 µM | PC-3 > 100 µM | RPMI-8226 > 100 µM | RXF 393 > 100 µM | SF-268 > 100 µM | SF-295 > 100 µM | SF-539 > 100 µM | SK-MEL-28 > 100 µM | SK-MEL-2 > 100 µM | SK-MEL-5 > 100 µM | SK-OV-3 > 100 µM | SN12C > 100 µM | SNB-19 > 100 µM | SNB-75 > 100 µM | SR > 100 µM | SW-620 > 100 µM | T47D > 100 µM | TK-10 > 100 µM | U-251 > 100 µM | UACC-257 > 100 µM | UACC-62 > 100 µM | UO-31 > 100 µM
> 100 µM: HCT-15

CC1=CC(C)C(C)N(CCNC(=O)Nc2ccccc2)c2ccccc21 (stereo not given)
21.9 µM: HCT-15
inactive: 786-0 30.3 µM | A498 16.2 µM | A549 12 µM | ACHN 15.8 µM | CAKI-1 19.5 µM | CCRF-CEM 20.7 µM | COLO 205 16.6 µM | DU-145 32.7 µM | EKVX 25.9 µM | HCC 2998 18.1 µM | HCT-116 13.9 µM | HOP-62 22.2 µM | HT-29 12 µM | Hs-578T 2.33 µM | IGROV-1 28.2 µM | K562 17.1 µM | KM12 26.8 µM | LOX IMVI 6.81 µM | M14 23.8 µM | MCF7 17.4 µM | MDA-MB-231 13.3 µM | MDA-MB-435 25.1 µM | MDA-N 22.5 µM | MOLT-4 20 µM | Malme-3M 24.6 µM | NCI-H226 22.1 µM | NCI-H23 17.6 µM | NCI-H460 19.8 µM | NCI-H522 12.1 µM | NCI/ADR-RES 18.2 µM | OVCAR-3 16 µM | OVCAR-4 27.4 µM | OVCAR-5 19.5 µM | OVCAR-8 15.5 µM | PC-3 13.2 µM | RPMI-8226 14.6 µM | RXF 393 11.5 µM | SF-268 27.5 µM | SF-295 10 µM | SF-539 21.4 µM | SK-MEL-28 28.6 µM | SK-MEL-2 23.1 µM | SK-MEL-5 14.1 µM | SK-OV-3 19.1 µM | SN12C 25.9 µM | SNB-19 20.3 µM | SNB-75 27.3 µM | SR 16.3 µM | SW-620 26.5 µM | T47D 21.3 µM | TK-10 20.9 µM | UACC-257 13.7 µM | UACC-62 13.6 µM | UO-31 27.2 µM
